Patent US8916557B2, “Substituted 4-Aryl-N-phenyl-1,3,5-triazin-2-amines” (Bayer Intellectual Property GmbH, priority 2011, dated 2014)

Key:
CDK9/CycT1 = molecular target: T1, CDK9/CycT1 (Homo sapiens, UniProt P50750); test: CDK9/CycT1 kinase assay (TR-FRET); assay type: biochemical; conditions: Method 1, 10 μM ATP
T1 construct: Recombinant full-length His-tagged human CDK9 and CycT1; His; purchased Invitrogen PV4131; host or cells: insect cells
How it was run: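 Full-length His-tagged human CDK9/CycT1 (insect-cell expressed), 15 min compound pre-incubation, then 25 min at 22 °C with 10 µM ATP (final) and 1 µM biotinylated peptide (final) in Tris pH 8.0/MgCl2 buffer. Phospho-substrate detected by TR-FRET (anti-RB pSer807/pSer811, Eu anti-mouse IgG, streptavidin-XL665); 665/622 nm emission ratio as read-out.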

[1] = test system: Caco-2 human colorectal carcinoma; test: Proliferation assay (crystal violet), Caco-2; assay type: cell-based; conditions: CACO-2 cells, read-out: Inhibition of CACO-2 cell proliferation
[2] = test system: HeLa-MaTu-ADR, multidrug-resistant human cervical carcinoma cells; test: Proliferation assay (crystal violet), HeLa-MaTu-ADR; assay type: cell-based; conditions: read-out: Inhibition of HeLa/MaTu/ADR cell proliferation
Procedure: (§1) Cultivated tumour cells (NCI-H460, human non-small cell lung carcinoma cells, ATCC HTB-177; DU 145, hormone-independent human prostate carcinoma cells, ATCC HTB-81; HeLa-MaTu, human cervical carcinoma cells, EPO-GmbH, Berlin; HeLa-MaTu-ADR, multidrug-resistant human cervical carcinoma cells, EPO-GmbH, Berlin; HeLa human cervical tumour cells, ATCC CCL-2; Caco-2 human colorectal carcinoma, ATCC HTB-37; B16F10 mouse melanoma cells, ATCC CRL-6475) were plated at a density of 5000 cells/well (DU145, HeLa-MaTu-ADR), 3000 cells/well (NCI-H460, HeLa-MaTu, HeLa), 1500 cells/well (Caco-2), or 1000 cells/well (B16F10) in a 96-well multititer plate in 200 μL of their respective growth medium supplemented 10% fetal calf serum. After 24 hours, the cells of one plate (zero-point plate) were stained with crystal violet (see below), while the medium of the other plates was replaced by fresh culture medium (200 μl), to which the test substances were added in various concentrations (0 μM, as well as in the range of 0.001-10 μM; the final concentration of the solvent dimethyl sulfoxide was 0.5%). The cells were incubated for 4 days in the presence of test substances. Cell proliferation was determined by staining the cells with crystal violet: the cells were fixed by adding 20 μl/measuring point of an 11% glutaric aldehyde solution for 15 minutes at room temperature. After three washing cycles of the fixed cells with water, the plates were dried at room temperature. The cells were stained by adding 100 μl/measuring point of a 0.1% crystal violet solution (pH 3.0). After three washing cycles of the stained cells with water, the plates were dried at room temperature. The dye was dissolved by adding 100 μl/measuring point of a 10% acetic acid solution. The extinction was determined by photometry at a wavelength of 595 nm. The change of cell number, in percent, was calculated by normalization of the measured values to the extinction values of the zero-point plate (=0%) and the extinction of the untreated (0 μm) cells (=100%). The IC50 values were determined by means of a 4 parameter fit.

[3] = test system: DU 145, hormone-independent human prostate carcinoma cells; test: Proliferation assay (crystal violet), DU 145; assay type: cell-based; conditions: DU145 cells, read-out: Inhibition of DU145 cell proliferation
[4] = test system: B16F10 mouse melanoma cells; test: Proliferation assay (crystal violet), B16F10; assay type: cell-based; conditions: B16-F10, read-out: Inhibition of B16F10 cell proliferation
Procedure: as §1

[5] = test system: NCI-H460, human non-small cell lung carcinoma cells; test: Proliferation assay (crystal violet), NCI-H460; assay type: cell-based; conditions: read-out: Inhibition of H460 cell proliferation (activity range)
Procedure: as §1

[6] = test system: HeLa human cervical tumour cells; test: Proliferation assay (crystal violet), HeLa; assay type: cell-based; conditions: read-out: Inhibition of HeLa cell proliferation
Caco-2 permeation assay = assay type: in vitro ADME; conditions: human
CDK2/CycE = molecular target: T2, CDK2/CycE (Homo sapiens, UniProt P24941); test: CDK2/CycE kinase assay (TR-FRET); assay type: biochemical; conditions: Method 2, 10 μM ATP
T2 construct: GST; purchased ProQinase GmbH (Freiburg, Germany); host or cells: insect cells (Sf9)
How it was run: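 TR-FRET read-out: emission ratio 665/620 nm via anti-RB(pSer807/pSer811) antibody, Eu-anti-mouse IgG and streptavidin-XL665. Kinase reaction: insect-cell GST-CDK2/CycE, compound pre-bound 15 min, 10 μM ATP final, 0.75 μM biotin-peptide, 25 min, 22 °C, pH 8.0.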

T1 sequence (P50750 whole entry): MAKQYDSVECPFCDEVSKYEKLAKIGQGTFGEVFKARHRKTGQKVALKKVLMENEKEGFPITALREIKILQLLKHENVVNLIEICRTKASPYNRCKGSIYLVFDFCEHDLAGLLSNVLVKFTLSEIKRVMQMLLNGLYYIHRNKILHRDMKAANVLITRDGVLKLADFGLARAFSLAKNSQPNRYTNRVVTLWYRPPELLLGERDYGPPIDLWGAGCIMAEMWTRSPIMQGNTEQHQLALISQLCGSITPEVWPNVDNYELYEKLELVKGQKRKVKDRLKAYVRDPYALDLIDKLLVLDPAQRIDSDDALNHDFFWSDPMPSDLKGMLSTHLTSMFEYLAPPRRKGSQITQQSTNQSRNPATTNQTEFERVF
T1 sequence (O60563 whole entry partner): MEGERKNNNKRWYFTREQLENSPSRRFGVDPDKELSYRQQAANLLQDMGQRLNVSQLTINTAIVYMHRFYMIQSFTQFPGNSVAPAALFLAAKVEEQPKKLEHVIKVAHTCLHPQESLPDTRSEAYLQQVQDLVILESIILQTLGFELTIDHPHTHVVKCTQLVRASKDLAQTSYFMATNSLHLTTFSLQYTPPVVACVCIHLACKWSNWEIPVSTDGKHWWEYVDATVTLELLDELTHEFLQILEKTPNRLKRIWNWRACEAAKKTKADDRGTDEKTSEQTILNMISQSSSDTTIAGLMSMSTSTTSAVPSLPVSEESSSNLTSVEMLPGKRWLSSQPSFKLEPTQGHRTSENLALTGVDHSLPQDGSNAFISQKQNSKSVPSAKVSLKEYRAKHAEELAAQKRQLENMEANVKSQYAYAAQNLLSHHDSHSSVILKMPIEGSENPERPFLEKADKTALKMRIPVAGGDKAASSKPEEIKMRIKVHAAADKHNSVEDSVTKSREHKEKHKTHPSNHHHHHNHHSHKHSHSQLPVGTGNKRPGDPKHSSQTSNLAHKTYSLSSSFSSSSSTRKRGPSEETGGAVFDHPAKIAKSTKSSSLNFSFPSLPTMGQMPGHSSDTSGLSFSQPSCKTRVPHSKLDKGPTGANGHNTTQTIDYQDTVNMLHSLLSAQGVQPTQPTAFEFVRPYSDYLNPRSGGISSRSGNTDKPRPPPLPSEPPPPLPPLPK

**Q.** With CS(=O)(=O)Cc1cccc(Nc2ncnc(-c3ccc(F)cc3OCc3cc(F)cc(F)c3F)n2)c1 [Example 84, 4-{4-Fluoro-2-[(2,3,5-trifluorobenzyl)oxy]phenyl}-N-{3-[(methylsulfonyl)methyl]-phenyl}-1,3,5-triazin-2-amine] as the molecule, how does the IC50 (CDK9/CycT1) read?
**A.** 3 nM

**Q.** And the IC50 [1]?
**A.** 320 nM

**Q.** What about the IC50 [2] of the same molecule?
**A.** 280 nM

**Q.** What about the IC50 [3] of the same molecule?
**A.** 350 nM

**Q.** And the IC50 [4]?
**A.** 490 nM

**Q.** What about the IC50 [5] of the same molecule?
**A.** 310 nM

**Q.** And the IC50 [6]?
**A.** 340 nM

**Q.** With CS(=O)(=O)Cc1cccc(Nc2ncnc(-c3ccccc3OCc3cccc(F)c3)n2)c1 [Example 26, 4-{2-[(3-Fluorobenzyl)oxy]phenyl}-N-{3-[(methylsulfonyl)methyl]phenyl}-1,3,5-triazin-2-amine] as the molecule, how does the efflux ratio at 2 h, 2 μM (Caco-2 permeation assay; Caco-2, pH 7.2) read?
**A.** 0.43

**Q.** And the Papp A→B at 2 h, 2 μM (Caco-2 permeation assay; Caco-2 monolayer, 2 μM test compound, 2 h, pH 7.2, read-out: Papp A-B (Mari))?
**A.** 16.9 ×10⁻⁶ cm/s

**Q.** What about the Papp B→A at 2 h, 2 μM (Caco-2 permeation assay; Caco-2 monolayer, 2 μM test compound, 2 h, pH 7.2, read-out: Papp B-A (Mari)) of the same molecule?
**A.** 7.2 ×10⁻⁶ cm/s

**Q.** And the IC50 (CDK9/CycT1)?
**A.** 3 nM

**Q.** What about the IC50 (CDK2/CycE) of the same molecule?
**A.** 290 nM

**Q.** What about the IC50 [6] of the same molecule?
**A.** 530 nM

**Q.** With CS(=O)(=O)Cc1cccc(Nc2ncnc(-c3ccc(F)cc3OCc3ccc(F)c(F)c3)n2)c1 [Example 86, 4-{2-[(3,4-Difluoro-benzyl)oxy]-4-fluorophenyl}-N-{3-[(methylsulfonyl)-methyl]phenyl}-1,3,5-triazin-2-amine] as the molecule, how does the IC50 (CDK9/CycT1) read?
**A.** 6 nM

**Q.** What about the IC50 [1] of the same molecule?
**A.** 200 nM

**Q.** What about the IC50 [2] of the same molecule?
**A.** 220 nM

**Q.** And the IC50 [3]?
**A.** 230 nM

**Q.** And the IC50 [4]?
**A.** 250 nM

**Q.** What about the IC50 [5] of the same molecule?
**A.** 270 nM

**Q.** And the IC50 [6]?
**A.** 250 nM

**Q.** For CS(=O)(=O)Cc1cccc(Nc2ncnc(-c3ccc(F)cc3OCC3CCCCC3)n2)c1 [Example 57, 4-[2-(Cyclohexylmethoxy)-4-fluorophenyl]-N-{3-[(methylsulfonyl)methyl]phenyl}-1,3,5-triazin-2-amine], which IC50 (CDK9/CycT1) is on record?
**A.** 7 nM

**Q.** What about the IC50 (CDK2/CycE) of the same molecule?
**A.** 2400 nM

**Q.** What about the IC50 [6] of the same molecule?
**A.** 1100 nM

**Q.** For COc1cnccc1-c1ncnc(Nc2cccc(CS(C)(=O)=O)c2)n1 [Example 8, 4-(3-Methoxypyridin-4-yl)-N-{3-[(methylsulfonyl)methyl]phenyl}-1,3,5-triazin-2-amine], which IC50 (CDK9/CycT1) is on record?
**A.** 37 nM

**Q.** And the IC50 (CDK2/CycE)?
**A.** 4700 nM

**Q.** And the IC50 [6]?
**A.** 1500 nM

**Q.** Which IC50 (CDK9/CycT1) does the source give for CS(=O)(=O)Cc1cccc(Nc2ncnc(-c3ccc(F)cc3OCc3ccc(Cl)cc3)n2)c1 [Example 76, 4-{2-[(4-Chlorobenzyl)oxy]-4-fluorophenyl}-N-{3-[(methylsulfonyl)methyl]phenyl}-1,3,5-triazin-2-amine] here?
**A.** 6 nM

**Q.** What about the IC50 (CDK2/CycE) of the same molecule?
**A.** 710 nM

**Q.** What about the IC50 [6] of the same molecule?
**A.** 1000 nM

**Q.** With COc1cc(F)ccc1-c1ncnc(Nc2cc(Cl)cc(CS(C)(=O)=O)c2)n1 [Example 39, N-{5-Chloro-3-[(methylsulfonyl)methyl]phenyl}-4-(4-fluoro-2-methoxyphenyl)-1,3,5-triazin-2-amine] as the molecule, how does the IC50 (CDK9/CycT1) read?
**A.** 9 nM

**Q.** What about the IC50 (CDK2/CycE) of the same molecule?
**A.** 190 nM

**Q.** And the IC50 [6]?
**A.** 280 nM

**Q.** Which IC50 (CDK9/CycT1) does the source give for COc1cccc(COc2cc(F)ccc2-c2ncnc(Nc3cccc(CS(C)(=O)=O)c3)n2)c1 [Example 70, 4-{4-Fluoro-2-[(3-methoxybenzyl)oxy]phenyl}-N-{3-[(methylsulfonyl)-methyl]phenyl}-1,3,5-triazin-2-amine] here?
**A.** 14 nM

**Q.** What about the IC50 (CDK2/CycE) of the same molecule?
**A.** 1100 nM

**Q.** And the IC50 [6]?
**A.** 1300 nM

**Q.** With COc1cc(F)ccc1-c1ncnc(Nc2cccc(CS(=O)(=O)C(C)C)c2)n1 [Example 24, 4-(4-Fluoro-2-methoxyphenyl)-N-{3-[(propan-2-ylsulfonyl)methyl]phenyl}-1,3,5-triazin-2-amine] as the molecule, how does the IC50 (CDK9/CycT1) read?
**A.** 7 nM

**Q.** And the IC50 (CDK2/CycE)?
**A.** 680 nM

**Q.** What about the IC50 [6] of the same molecule?
**A.** 1000 nM

**Q.** What does the source list for COCCOc1cc(F)ccc1-c1ncnc(Nc2cccc(CS(C)(=O)=O)c2)n1 [Example 50, 4-[4-Fluoro-2-(2-methoxyethoxy)phenyl]-N-{3-[(methylsulfonyl)methyl]-phenyl}-1,3,5-triazin-2-amine]?
**A.** IC50 (CDK9/CycT1): 38 nM; IC50 (CDK2/CycE): 490 nM; IC50 [6]: 2900 nM
